# Reference: article PMC10856415, “Lactoferricin B Combined with Antibiotics Exhibits Leukemic Selectivity and Antimicrobial Activity” (Molecules, 2024)
# Square brackets hold non-standard residues; d marks the D form. Ends that are not written are not given here. Peptide text beside a SMILES is read from it. * marks the point of attachment. X1 = N[C@@H](CS*)C(=O)N1CCN(c2cc3c(cc2F)c(=O)c(C(=O)O)cn3C2CC2)CC1; X2 = O=C(Cn1cc(CC(O)(Cn2cncn2)c2ccc(F)cc2F)nn1)*; Nle = CCCC[C@H](N)C(=O)O
# Experiments:
# HL60 [1] = experiment: Mitochondrial potential, DiOC6(3) flow cytometry in HL60; format: cell-based, human; conditions: HL60 stained with DIOC6(3)
# Method: HL60 was incubated with 100 nM 3,3′-dihexyloxacarbocyanine iodide (DiOC6(3)) (Cat. D273, Thermo Fisher Scientific). Cells were stained under culture conditions for 15 min, washed with prewarmed PBS, and examined by Guava EasyCyte flow cytometer (Merck-Millipore, USA). The results of flow cytometry were analyzed with Flowing Software 2.5.1 (Turku Bioscience, Finland).
# S. aureus = experiment: Switch of S. aureus asymmetric phosphatidylserine location (Annexin V / 7AAD); format: cell-based, Staphylococcus aureus; conditions: MIC concentrations, first hour to 6 h
# Method: Bacterial cultures with an […], as utilized in bacteriostatic experiments (Ptaszyńska et al., 2019 [16, 48]), were plated on Petri dishes. Compounds were added at the MIC concentration to the test sample, while no compound was added to the negative control. After an appropriate incubation period (45 min, […]), samples were collected and promptly washed with PBS. The pellet was then suspended in 100 μL of annexin binding buffer (BioSource International, Camarillo, CA, USA), which included 0.25 μL of 7-AAD (7-aminoactinomycin D, 1 mg/mL, Sigma) and 1 μL of Annexin–FITC (Thermo Fisher, Waltham, MA, USA). Following the addition of 400 μL of annexin binding buffer, the samples were left in the dark for 15 min. Subsequently, the samples were placed on ice and immediately read by the Guava EasyCyte (Merck-Millipore, Burlington, MA, USA). Flow results were analyzed with the free online software https://floreada.io/ (accessed on 30 November 2023; the last update was carried out in June 2023).
# HL60 [2] = conditions: HL60, CM-H2DCFDA, compound at 2-fold IC90
# Method: (§7) Cell lines were cultured as mentioned above and seeded in Petri dishes (Falcon, Cary, NC, USA) in the amount of 25 × 10^3 per Φ35 dish. HEK293 cells were allowed to attach overnight. ROS generation potential was tested for selected compounds after 0.25, 0.5, 1, 3, 6, and 24 h of incubation. The CM-H2DCFDA molecular probe (Thermo Fisher Scientific, Waltham, MA, USA) at a final concentration of 1 µM was added 15 min before the analysis. After staining, HEK293 cells were trypsinized, harvested, and suspended in fresh media. The 7AAD (Cat. A9400, Sigma Aldrich) was added just before analysis. Analyses were carried out with a Guava EasyCyte flow cytometer (Merck-Millipore, USA). Flow cytometry data were processed with Flowing Software 2.5.1 (Turku Bioscience, Turku, Finland).
# HEK293 [3] = conditions: HEK293, CM-H2DCFDA, compound at 2-fold IC90
# Method: as §7
# Candida krusei DSM 6128 = conditions: C. krusei, relative to IC50 of HL60
# BT20 = experiment: Cell proliferation (EC50, selectivity index) on BT20; format: cell-based, human; conditions: normalized to EC50
# Method: (§1) To evaluate their effect on leukemia, cancer, and non-cancer cells, the Malignancy Selectivity Index was calculated as MSI = EC50 (non-cancerous)/EC50 (leukemic or cancerous) or EC50 (leukemic or cancerous)/EC50 (leukemic or cancerous).
# (§2) Supplementary Table S1. […] 4. […]
# (§3) of incubation; The initial cellular density for HL60 was 5,000 cells, and for HEK293, it was 1,500 cells […]
# (§4) Supplementary Table S2. […] The conversion from IC50 to EC50 was performed following the method outlined in [62]; For IC50 values, please refer to Supplementary […]
# (§5) For MIC and IC50 data, please also refer to Ptaszyńska et al., 2019. Abbreviations: S. e. - Staphylococcus epidermidis ATCC 12228; B. s. - Bacillus subtilis ATCC 6633; S. a. - Staphylococcus aureus ATCC 25923; P. a - Pseudomonas aeruginosa ATCC 27853; B. c - Bacillus cereus PCM 2003; C. k. - Candida krusei DSM 6128; C. p. - Candida parapsilosis DSM 5784; C. a. - Candida albicans ATCC 10231; C. g. - Candida glabrata DSM 11226; C. t. - Candida […]
# A549 = experiment: Cell proliferation (EC50, selectivity index) on A549; format: cell-based, human; conditions: normalized to EC50
# Method: as §1, §2, §3, §4, §5
# HL60 [4] = experiment: MTT drug sensitivity assay on HL60; format: cell-based, human; conditions: normalized to EC50
# Method: (§6) As mentioned in [61], we followed detailed procedures, including the composition of media and growth conditions, for the application of conjugate 4 on both HL60 and HEK293 in the MTT drug sensitivity assay. The initial cellular density for cultures seeded in a 96-well plate was 5000 cells/well for HL60 and 1500 cells/well for HEK293.
# as §2, §3, §4, §5
# HEK293 [5] = experiment: MTT drug sensitivity assay on HEK293; format: cell-based, human; conditions: normalized to EC50
# Method: as §6, §2, §3, §4, §5
molecule,measurement,setting,value
CCCC[C@H](NC(=O)[C@H](CCCNC(=N)N)NC(=O)[C@H](Cc1c[nH]c2ccccc12)NC(=O)[C@H](CCC(N)=O)NC(=O)[C@H](Cc1c[nH]c2ccccc12)NC(=O)[C@H](CCCNC(=N)N)NC(=O)[C@H](CCCNC(=N)N)NC(=O)[C@H](CSSC[C@H](N)C(=O)N1CCN(c2cc3c(cc2F)c(=O)c(C(=O)O)cn3C2CC2)CC1)NC(=O)[C@H](CCCCN)NC(=O)[C@@H](N)Cc1ccccc1)C(N)=O [conjugate 3] (H-FKC(X1)RRWQWR[Nle]-NH2; N-terminus assumed),Impact on mitochondrial potential,HL60 [1],minimal impact
same,Reduction in number of events (7AAD vs. Annexin V) compared to LfcinB,S. aureus,more pronounced
CSCC[C@H](NC(=O)[C@H](CCCNC(=N)N)NC(=O)[C@H](Cc1c[nH]c2ccccc12)NC(=O)[C@H](CCC(N)=O)NC(=O)[C@H](Cc1c[nH]c2ccccc12)NC(=O)[C@H](CCCNC(=N)N)NC(=O)[C@H](CCCNC(=N)N)NC(=O)[C@H](CS)NC(=O)[C@H](CCCCN)NC(=O)[C@H](Cc1ccccc1)NC(=O)Cn1cc(CC(O)(Cn2cncn2)c2ccc(F)cc2F)nn1)C(N)=O (stereo partly shown) [conjugate 4] (X2-FKCRRWQWRM-NH2; N-terminus assumed),Levels of cellular ROS,HL60 [2],negligible
same,Levels of cellular ROS,HEK293 [3],negligible
"conjugate 1: covalently bonded LfcinB and LVX (FKCRRWQWRMKKLGAPSITCVRRAF; ends and bridges not checked; also: covalently bonded to levofloxacin, site not given here; UniProt P24627 36-60, looked up)",FSI (Fungistatic Selectivity Index),Candida krusei DSM 6128,2.9
same,"Malignancy Selectivity Index, BT20 section, A549 column",BT20; A549 vs BT20,2.9
same,"Malignancy Selectivity Index, BT20 section, HEK293 column",BT20; HEK293 vs BT20,13.1
same,"Malignancy Selectivity Index, BT20 section, HL-60 column",BT20; HL-60 vs BT20,0.3
same,"Malignancy Selectivity Index, A549 section, BT20 column",A549; BT20 vs A549,0.3
same,"Malignancy Selectivity Index, A549 section, HEK293 column",A549; HEK293 vs A549,4.4
same,"Malignancy Selectivity Index, A549 section, HL-60 column",A549; HL-60 vs A549,0.1
same,"Malignancy Selectivity Index, HL60 section, A549 column",HL60 [4]; A549 vs HL60,8.9
same,"Malignancy Selectivity Index, HL60 section, BT20 column",HL60 [4]; BT20 vs HL60,3.0
same,"Malignancy Selectivity Index, HL60 section, HEK293 column",HL60 [4]; HEK293 vs HL60,39.4
same,"Malignancy Selectivity Index, HEK293 section, A549 column",HEK293 [5]; A549 vs HEK293,0.2
same,"Malignancy Selectivity Index, HEK293 section, BT20 column",HEK293 [5]; BT20 vs HEK293,0.1
